Data taken from US20240247253A1, “PRODUCTION METHOD OF POLYPEPTIDE, TAG, EXPRESSION VECTOR, EVALUATION METHOD OF POLYPEPTIDE, PRODUCTION METHOD OF NUCLEIC ACID DISPLAY LIBRARY, AND SCREENING METHOD” (FUJIFILM Corporation, priority 2021, published 2024).
Ends that are not written are not given here. * marks the point of attachment. ClAc = O=C(CCl)*

B1: chemically synthesized integrin binding peptide (SEQ ID NO: 126) (peptide)
peptide: CEPRGDNYRK(ClAc)GGSKKK
notes: Immobilized on a CM5 chip by amine coupling; also called CEPRGDNYRXGGSKKK

Key:
[1] = test system: cell-free peptide synthesis system derived from Escherichia coli; assay: Cell-free biosynthesis of the integrin binding peptide fusion protein with tag, reaction time 10 minutes, ELISA; type: biochemical; conditions: relative value, control without tag = 1; reaction time 10 minutes; fusion protein SEQ ID NO: 5; SKIK encoded by SEQ ID NO: 110
Protocol: (§1) The cell-free biosynthesis of the polypeptide was carried out in a translation solution containing a template DNA, PUREfrex 2.0 (GeneFrontier, PF201-0.25-5), and Aminoacyl tRNA (1). 1.25 μL (62.5 ng) of the template DNA prepared to 50 ng/μL, 2.5 μL of PUREfrex 2.0 Solution I, 0.25 μL of Solution II, 0.5 μL of Solution III, and 0.5 μL of Aminoacyl tRNA (1) were mixed and mixture was subjected to a reaction at 37° ° C. for 1 hour.
(§2) The amount of the biosynthesized polypeptide was measured by ELISA. 50 ng of Recombinant Human Integrin αVβ3 (R&D systems, 3050-AV-050) was immobilized in each well of a 96-well plate and blocked with Blocker Casein in PBS (Thermo, 37528), and then a cell-free biosynthesis solution diluted with Can Get Signal Immunoreaction Enhancer Solution I (TOYOBO, NKB-101) containing 5 mmol/L MgCl2 was added thereto, and the mixture was subjected to a reaction at room temperature for 3 hours. After washing with 5 mmol/L MgCl2/0.05% Tween 20-containing phosphate buffered saline (PBS), an anti-Myc antibody (Cell Signaling, 14038S) diluted with Can Get Signal Immunoreaction Enhancer Solution II (TOYOBO, NKB-101) was added thereto, and the mixture was subjected to a reaction at room temperature for 2 hours. After washing with PBS containing 5 mmol/L MgCl2/0.05% Tween 20, Super Signal ELISA Femto Substrate (Thermo, 37075) was added thereto, and the luminescence was measured. The amount of the fusion protein in the cell-free biosynthesis solution was calculated based on a calibration curve created from the fusion protein having a known concentration. The luminescence measurement was performed twice, and the average value of the amounts of the fusion protein was calculated. Table 2-1 and Table 2-2 show relative values of the biosynthesis amounts of respective fusion proteins in a case where the amount of the fusion protein of the control example was set to the reference value 1.
As a comparative control, a SKIK tag represented by SEQ ID NO: 107 was selected. The polypeptide to be biosynthesized is the fusion protein containing the integrin binding peptide, as in Example 1.
Using a template DNA including DNA sequences (SEQ ID NOs: 73 to 98) encoding VKKX tags represented by SEQ ID NOs: 27 to 52 produced in Example 1, and a DNA sequence (SEQ ID NO: 110) encoding a SKIK tag represented by SEQ ID NO: 107 produced in Example 2, the biosynthesis reaction was performed in the same manner as in Example 1 by setting the reaction time to 10 minutes. In the same manner in Example 1, the fusion protein was expressed by the cell-free peptide synthesis system and quantified by ELISA. The measurement was performed twice, and the average value of the amounts of the fusion protein was calculated. […] As control example used in Example 1, the control example of the reference value 1 has a form in which the base sequence (SEQ ID NO: 6) encoding the fusion protein is arranged immediately after the start codon ATG.

[2] = test system: cell-free peptide synthesis system derived from Escherichia coli; assay: Cell-free biosynthesis of the integrin binding peptide fusion protein with N-terminal tag, 1 hour reaction, amount measured by ELISA; type: biochemical; conditions: fusion protein SEQ ID NO: 5; for Biosynthesis amount of fusion protein: relative value, control example without tag = 1, 37° C. for 1 hour, average of two measurements
Description: In the cell-free peptide synthesis system derived from Escherichia coli, the effect of the VKKX tag on the biosynthesis amount of the polypeptide was examined. As a polypeptide to be biosynthesized, an integrin binding peptide containing cysteine and chloroacetyl lysine was selected. In this polypeptide, a thiol group of cysteine and a chloroacetyl group of chloroacetyl lysine spontaneously form a thioether bond to become a cyclic polypeptide.
A fusion protein in which an integrin binding peptide, a Myc tag, and a HiBiT tag were linked in this order was designed. As a spacer, Gly-Gly-Ser was inserted between the integrin binding peptide and the Myc tag and between the Myc tag and the HiBiT tag. The amino acid sequence of this fusion protein is SEQ ID NO: 5, and the base sequence encoding this fusion protein is SEQ ID NO: 6. In SEQ ID NO: 5, the integrin binding peptide ranges to the amino acid at the twelfth position (that is, alanine) from an N-terminal, and the amino acid at eleventh position from the N-terminal is chloroacetyl lysine. The triplet TAG at the positions 31 to 33 from the 5′ terminal of the base sequence set forth in SEQ ID NO: 6 was assigned to the codon of chloroacetyl lysine. The end of the base sequence set forth in SEQ ID NO: 6 is the stop codon TAA.
A base sequence encoding a tagged fusion protein in which methionine, a VKKX tag (any of SEQ ID nOs: 7 to 52), and a fusion protein (SEQ ID NO: 5) were linked in this order was designed. In this base sequence, a base sequence (any of SEQ ID nOs: 53 to 98) encoding a VKKX tag is arranged immediately after the start codon ATG, and a base sequence encoding a fusion protein immediately after the base sequence (SEQ ID NO: 6) encoding the VKKX tag is arranged.
As a control example for evaluating the effect of the VKKX tag, a base sequence in which a base sequence (SEQ ID NO: 6) encoding a fusion protein arranged immediately after the start codon ATG was designed.
In order to translate chloroacetyl lysine which is an unnatural amino acid, a tRNA in which the anticodon was CUA and paired with the UAG codon of mRNA was prepared. This tRNA was aminoacylated with an N-chloroacetyl lysine hosphoro 2′ deoxyribocytidylylriboadenosine (pdCpA) ester. This aminoacyl tRNA is referred to as an Aminoacyl tRNA (1).
as §1
as §2, with “Table 2-1 and Table 2-2 show relative values of the biosynthesis amounts of respective fusion proteins in a case where the amount of the fusion protein of the control example was set to the reference value 1.” left out

[3] = target: T1, Recombinant Human Integrin αVβ3 (R&D systems, 3050-AV-050) (human, UniProt P06756 31-992; P05106 27-718); assay: SPR (Biacore T-100): peptide immobilized on CM5 chip, integrin αVβ3 injected at 10, 30, 100, 300 nmol/L, 5 mmol/L MgCl2
T1 construct: Bought heterodimer
T1 sequence (P06756 31-992 limits assumed, chain 1 of 2): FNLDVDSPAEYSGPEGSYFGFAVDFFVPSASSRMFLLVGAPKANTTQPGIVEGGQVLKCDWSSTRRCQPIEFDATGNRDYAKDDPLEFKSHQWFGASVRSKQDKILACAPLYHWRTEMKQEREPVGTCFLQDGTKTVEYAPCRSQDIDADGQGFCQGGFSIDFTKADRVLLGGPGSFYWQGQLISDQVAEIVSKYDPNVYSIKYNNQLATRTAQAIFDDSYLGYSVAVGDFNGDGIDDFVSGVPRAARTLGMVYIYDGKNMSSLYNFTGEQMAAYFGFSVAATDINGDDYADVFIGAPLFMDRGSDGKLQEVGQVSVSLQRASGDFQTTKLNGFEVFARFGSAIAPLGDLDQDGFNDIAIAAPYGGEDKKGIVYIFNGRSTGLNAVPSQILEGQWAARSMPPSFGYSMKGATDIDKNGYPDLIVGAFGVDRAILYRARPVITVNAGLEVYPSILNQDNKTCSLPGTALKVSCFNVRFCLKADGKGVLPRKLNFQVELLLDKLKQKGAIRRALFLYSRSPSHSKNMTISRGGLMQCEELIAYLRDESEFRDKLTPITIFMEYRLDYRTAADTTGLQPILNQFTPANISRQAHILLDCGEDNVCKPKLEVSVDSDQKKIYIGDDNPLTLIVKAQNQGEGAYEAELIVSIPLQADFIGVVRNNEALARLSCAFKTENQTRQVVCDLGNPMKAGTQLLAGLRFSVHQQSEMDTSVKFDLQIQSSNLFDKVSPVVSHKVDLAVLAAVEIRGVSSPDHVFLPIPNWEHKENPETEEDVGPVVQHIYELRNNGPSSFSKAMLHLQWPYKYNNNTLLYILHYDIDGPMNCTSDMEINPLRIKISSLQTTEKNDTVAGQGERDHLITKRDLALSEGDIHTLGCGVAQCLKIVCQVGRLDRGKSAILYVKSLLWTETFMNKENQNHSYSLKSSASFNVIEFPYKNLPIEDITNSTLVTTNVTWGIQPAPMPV
T1 sequence (P05106 27-718 limits assumed, chain 2 of 2): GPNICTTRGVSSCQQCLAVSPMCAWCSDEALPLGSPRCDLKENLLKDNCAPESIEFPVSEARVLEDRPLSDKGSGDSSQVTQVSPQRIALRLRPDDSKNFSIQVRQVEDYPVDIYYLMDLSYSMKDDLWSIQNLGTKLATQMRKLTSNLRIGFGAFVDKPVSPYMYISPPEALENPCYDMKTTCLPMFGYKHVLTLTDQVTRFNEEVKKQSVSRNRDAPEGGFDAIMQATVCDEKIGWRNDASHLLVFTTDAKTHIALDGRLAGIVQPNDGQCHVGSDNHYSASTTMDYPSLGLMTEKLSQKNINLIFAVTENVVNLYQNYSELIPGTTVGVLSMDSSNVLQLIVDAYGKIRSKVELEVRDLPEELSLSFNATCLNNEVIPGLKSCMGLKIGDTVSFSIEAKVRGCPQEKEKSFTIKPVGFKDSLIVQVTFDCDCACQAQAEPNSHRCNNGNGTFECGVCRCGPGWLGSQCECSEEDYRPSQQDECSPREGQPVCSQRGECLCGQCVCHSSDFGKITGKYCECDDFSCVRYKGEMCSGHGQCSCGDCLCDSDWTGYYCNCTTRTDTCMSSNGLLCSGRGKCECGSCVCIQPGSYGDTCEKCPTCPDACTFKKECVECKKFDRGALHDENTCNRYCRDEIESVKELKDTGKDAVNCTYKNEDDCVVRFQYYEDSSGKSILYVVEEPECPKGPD
Protocol: In addition, as a comparative control, the binding ability (Kd value) of the integrin binding peptide was measured by the SPR method. An integrin binding peptide (SEQ ID NO: 126) was chemically synthesized and immobilized on a CM5 chip (Cytiva, BR100530) by an amine coupling method. The binding ability of the immobilized integrin binding peptide to Recombinant Human Integrin αVβ3 (R&D systems, 3050-AV-050) was measured using Biacore T-100 (Cytiva). As the measurement buffer, an HBS-N buffer (Cytiva, BR100670) in which MgCl₂ was added such that the final concentration was 5 mmol/L, and integrin was added thereto at a concentration of 10, 30, 100, or 300 nmol/L for 10 minutes. The CM5 chip was regenerated and used by repeating the addition of 500 mmol/L EDTA for 10 minutes twice.

Row | Molecule | Biosynthesis amount of fusion protein [1] | Biosynthesis amount of fusion protein [2] | increase of biosynthesis amount of the fusion protein ([2]; Example 1, versus control without tag, 1 hour) [times] | Kd [3] [nM]
1 | SEQ ID NO: 45: VKKX tag, amino acid sequence VKKTKTTKD (VKKX Tag) | 10.61 | 7.83 |  | 
2 | SEQ ID NO: 46: VKKX tag, amino acid sequence VKKTKTKKTK (VKKX Tag) | 23.47 | 9.94 |  | 
3 | SEQ ID NO: 47: VKKX tag, amino acid sequence VKKTKTKKDK (VKKX Tag) | 15.53 | 8.90 |  | 
4 | SEQ ID NO: 48: VKKX tag, amino acid sequence VKKTKTKTKK (VKKX Tag) | 36.08 | 10.47 |  | 
5 | SEQ ID NO: 49: VKKX tag, amino acid sequence VKKTKTKTTK (VKKX Tag) | 8.75 | 7.44 |  | 
6 | SEQ ID NO: 50: VKKX tag, amino acid sequence VKKTKTKDKK (VKKX Tag) | 35.42 | 7.78 |  | 
7 | SEQ ID NO: 51: VKKX tag, amino acid sequence VKKTKTTTKK (VKKX Tag) | 15.28 | 6.29 |  | 
8 | SEQ ID NO: 52: VKKX tag, amino acid sequence VKKTKTKTDTT (VKKX Tag) | 9.15 | 4.33 | 4.3 | 
9 | B1 |  |  |  | 7.6
